Experiment: xn = mol fraction of the nth substance listed
Settings: 101.3 kPa, Liquid

COC(=O)OC [dimethyl carbonate] + CCCCCC
Settings | mass density [kg/m3] | viscosity [mPa·s]
293.15 K, x1 = 0.0961 | 685.68 | 0.3032
293.15 K, x1 = 0.193 | 712.34 | 0.3094
293.15 K, x1 = 0.2909 | 741.99 | 0.3213
293.15 K, x1 = 0.3894 | 774.82 | 0.341
293.15 K, x1 = 0.489 | 811.38 | 0.3647
293.15 K, x1 = 0.5893 | 851.98 | 0.3939
293.15 K, x1 = 0.6906 | 897.34 | 0.427
293.15 K, x1 = 0.7928 | 948.58 | 0.4715
293.15 K, x1 = 0.896 | 1006.55 | 0.542
293.15 K, x1 = 1 | 1069.54 | 0.6173
298.15 K, x1 = 0.0961 | 680.92 | 0.2901
298.15 K, x1 = 0.193 | 707.38 | 0.294
298.15 K, x1 = 0.2909 | 736.8 | 0.306
298.15 K, x1 = 0.3894 | 769.42 | 0.3232
298.15 K, x1 = 0.489 | 805.8 | 0.3449
298.15 K, x1 = 0.5893 | 846.19 | 0.3709
298.15 K, x1 = 0.6906 | 891.45 | 0.4024
298.15 K, x1 = 0.7928 | 942.39 | 0.4472
298.15 K, x1 = 0.896 | 1000.17 | 0.5031
298.15 K, x1 = 1 | 1062.95 | 0.5734
303.15 K, x1 = 0.0961 | 676.14 | 0.279
303.15 K, x1 = 0.193 | 702.37 | 0.2817
303.15 K, x1 = 0.2909 | 731.62 | 0.2923
303.15 K, x1 = 0.3894 | 764.04 | 0.3061
303.15 K, x1 = 0.489 | 800.21 | 0.3252
303.15 K, x1 = 0.5893 | 840.41 | 0.3502
303.15 K, x1 = 0.6906 | 885.48 | 0.3808
303.15 K, x1 = 0.7928 | 936.19 | 0.4221
303.15 K, x1 = 0.896 | 993.78 | 0.4748
303.15 K, x1 = 1 | 1056.35 | 0.5403
313.15 K, x1 = 0.0961 | 666.41 | 0.2513
313.15 K, x1 = 0.193 | 692.21 | 0.2555
313.15 K, x1 = 0.2909 | 721.04 | 0.2645
313.15 K, x1 = 0.3894 | 753.05 | 0.277
313.15 K, x1 = 0.489 | 788.82 | 0.2938
313.15 K, x1 = 0.5893 | 828.62 | 0.3163
313.15 K, x1 = 0.6906 | 873.34 | 0.3417
313.15 K, x1 = 0.7928 | 923.65 | 0.3763
313.15 K, x1 = 0.896 | 980.84 | 0.4229
313.15 K, x1 = 1 | 1043.01 | 0.4807
323.15 K, x1 = 0.0961 | 656.55 | 0.2333
323.15 K, x1 = 0.193 | 681.9 | 0.2344
323.15 K, x1 = 0.2909 | 710.27 | 0.2423
323.15 K, x1 = 0.3894 | 741.92 | 0.2536
323.15 K, x1 = 0.489 | 777.28 | 0.2681
323.15 K, x1 = 0.5893 | 816.69 | 0.288
323.15 K, x1 = 0.6906 | 861.07 | 0.3101
323.15 K, x1 = 0.7928 | 910.98 | 0.3404
323.15 K, x1 = 0.896 | 967.8 | 0.3781
323.15 K, x1 = 1 | 1029.59 | 0.427
333.15 K, x1 = 0.0961 | 646.44 | 0.213
333.15 K, x1 = 0.193 | 671.36 | 0.2167
333.15 K, x1 = 0.2909 | 699.25 | 0.2239
333.15 K, x1 = 0.3894 | 730.55 | 0.234
333.15 K, x1 = 0.489 | 765.5 | 0.2466
333.15 K, x1 = 0.5893 | 804.52 | 0.2639
333.15 K, x1 = 0.6906 | 848.53 | 0.2842
333.15 K, x1 = 0.7928 | 898.13 | 0.3117
333.15 K, x1 = 0.896 | 954.54 | 0.3447
333.15 K, x1 = 1 | 1016 | 0.3893
